Data as given in US8197860B2, “Method for enhancing nutrient absorption with astragalosides” (Nuliv Holding Inc., priority 2005, dated 2012).

Legend:
Assay type in all cases: cell-based, human
Caco-2 cell monolayer [1] = assay: Tryptophan absorption assay (transport across Caco-2 cell monolayer); design: key to * (regulatory effect on tryptophan transport): ↑: the arrows that point up represent the enhancing effect on the tryptophan transport; conditions: for Regulatory effects on the tryptophan transport across the Caco2 cell monolayer: Table 4 summary; for Tryptophan transport rate: concentration from 0.01 μM to 1 mM
Procedure: (§1) To evaluate the effect of the isolated astragaloside compound on the uptake of nutrient substances across the intestinal lumen, Caco-2 cells were grown on permeable filter as an experimental model. Caco2 cells originate from human colonic adenocarcinoma and spontaneously differentiate into an enterocyte-like phenotype after two weeks. The Caco-2 cell line, derived from a human colorectal carcinoma, has been used as an in vitro model system for studying drug absorption in gastrointestinal tract. These cells form monolayers with well-developed tight-junctions, and have been evaluated in details as an in vitro model to study both transcellular transport of nutrients and drugs in intestinal lumen.
(§2) Caco-2 cells were obtained from the ATCC (American Type Culture Collection). The cells were maintained in Dulbecco's modified Eagle medium (DMEM) containing 4.5 g/L glucose and 25 mM Hepes, supplemented with 10% fetal calf serum, 100 U/mL penicillin G and […]. The medium was changed every second day. The cells were routinely checked for Mycoplasma in monthly intervals. Caco-2 cells were cultured on semi-permeable membranes to differentiate into a highly functionalized epithelial barrier with remarkable morphological and biochemical similarity to the small intestinal columnar epithelium. The Caco-2 cell monolayers could therefore be used to study the membrane transport properties of many compounds. To trypsinize the cells, the culture dish was washed once with phosphate-buffered saline (PBS) followed by adding trypsine-EDTA for 10 minutes. The trypsinized cells were separated and filtered into single cells using a 35-μm strainer cap (Falcon 2235) before being seeded for further experiments.
(§3) In measuring transport of arginine across the Caco-2 cell monolayer, both sides of the transwells were washed with arginine incubation buffer consisting of: 137 mM NaCl, 10 mM Hepes, 0.3 mM NaH2PO4, 0.3 mM K2HPO4, 5.4 mM KCl, 2.8 mM CaCl2, 1 mM MgSO4, 10 mM glucose, adjusted to pH 7.4. Then, the cell layer was preincubated in the incubation buffer at 37° C. for 1 h. The volume of incubation buffer was 0.2 mL and 0.9 mL in the apical and basolateral chambers, respectively. The cells were replaced with fresh incubation medium in both chambers prior to the transport experiment. The transport experiment was initiated by replacing the incubation solution on the apical side with solution containing 10 mM of L-arginine in which 0.125 μCi/mL of L-[^3H]-arginine was included. At designated time intervals, 10 μL-solution samples were removed from the basolateral side and radioactivity of each sample was counted using a microplate liquid scintillation counter (TopCount, Packard NXT). During the experiment, when a 10 μL-solution sample was removed from the basolateral side every time, 10 μL buffer was supplemented to keep the volume constant. The uptake of [^3H]-mannitol was used to correct for nonspecific transport of molecules across the monolayer membrane. Results were expressed as the nanomoles of arginine transport across the Caco-2 cell monolayers with respect to time in minutes (nmol/min).
The experimental procedures similar to those in Example 2 were used for measuring the uptake of tryptophan molecules across the Caco-2 membrane, except using a tryptophan incubation buffer consisting of 137 mM choline chloride, 10 mM Hepes, 0.6 mM KH2PO4, 5.4 mM KCl, 2.8 mM CaCl2, 1 mM MgSO4, and 10 mM glucose, and having its pH adjusted to 7.4. Results were expressed as the nanomoles of tryptophan transport across the Caco-2 cell monolayers with respect to time in minutes (nmol/min).

Caco2 cells = assay: Folate uptake assay; design: key to * (regulatory effect on folate uptake): ↑: the arrows that point up represent the enhancing effect on folate uptake; conditions: compound 0.1 μM; for Uptake rate (folate): 2 days, 5 μM folate, pH 6.0
Procedure: as §1, §2
Caco-2 cells (5×10^4) were seeded in a 48-well plate and maintained in culture medium (DMEM with 10% FBS, 1% nonessential amino acids, L-glutamine, penicillin G (100 U/mL), streptomycin (10 μg/mL), and amphotericin B (2.5 μg/mL) in a 37° C. incubator for 10 days for the cells to differentiate. The culture medium was changed once every two days. The cells were then washed with PBS before replenishing with the culture medium containing 5% FBS and various astragalosides at the indicated concentrations (0.01, 0.1 and 1 μM) for 48 hours. The Caco2 cells were washed out of remaining glucose with PBS and replaced in the glucose buffer (80 mM NaCl, 100 mM mannitol, 20 mM Tris-HCl, pH 7.4, 3 mM K2HPO4, 1 mM CaCl2, 1 mg/mL BSA) for 1 hour. Glucose uptake was initiated by replacing the glucose buffer with 0.2 ml of glucose buffer containing 2 μCi/mL of ^14C-glucose and unlabeled cold glucose to give a final glucose concentration of 25 mM. Glucose uptake was stopped by removing the glucose buffer and washing with PBS at designated time intervals. The cells were lysed in 0.2 mL of 0.2 N NaOH, and 20 μL of the cell lysate were transferred to the filter-bottomed UniFilter plates (Perkin-Elmer, Wellesley, Mass., USA) and dried in a vacuum oven at 37° C. The bottom of the UniFilter plate was sealed and 25 μL of the counting solution were added into each well. Adhesive plate sealers were used in place of the lids and radioactivity of each sample was counted using the microplate liquid scintillation counter (TopCount, Packard NXT, Packard BioScience Company, Meriden, Conn., USA). The amount of glucose accumulated in the cells was calculated and normalized to protein concentration, and uptake rate was expressed as nanomoles of glucose per minutes per milligram of cell protein (nmol/min/mg). Protein concentration was determined by a standard Bicinchoninic acid (BCA) protein assay. Nonspecific glucose uptake was measured by adding 2 μCi of L-[^14C]-glucose and subtracting from each determination to obtain specific glucose uptake.
The Caco2 cells were subjected to folate uptake test in a manner similar to that described in the glucose uptake assay in Example 1 above. […]

Caco-2 cell monolayer [2] = assay: Arginine absorption assay (transport across Caco-2 cell monolayer); design: key to * (regulatory effect on arginine transport): ↑: the arrows that point up represent the enhancing effect on the arginine transport; conditions: for Regulatory effects on the arginine transport across the Caco2 cell monolayer: Table 3 summary; for Transport rate (arginine): 10 mM L-arginine apical; for Arginine transport rate: concentration from 0.01 μM to 1 μM
Procedure: as §1, §2, §3

With `CC(=O)O[C@H]1[C@H](O[C@H]2CC[C@]34C[C@]35CC[C@]3(C)[C@@H]([C@@]6(C)CC[C@@H](C(C)(C)O)O6)[C@@H](O)C[C@@]3(C)[C@@H]5C[C@H](O[C@@H]3O[C@H](CO)[C@@H](O)[C@H](O)[C@H]3O)[C@H]4C2(C)C)OC[C@@H](OC(C)=O)[C@@H]1O` [IsoAS1, isoastragaloside I] the “Regulatory effects on the tryptophan transport across the Caco2 cell monolayer” value (Caco-2 cell monolayer [1]) was “had regulatory effects on the tryptophan transport”, the “* (regulatory effect on tryptophan transport)” value (Caco-2 cell monolayer [1]; compound 0.01 μM) was “↑” and the “Percentage (tryptophan transport, control = 100)” value (Caco-2 cell monolayer [1]; compound 0.01 μM) was 115.97%. The “Transport rate (tryptophan)” value (Caco-2 cell monolayer [1]; compound 0.01 μM) was 10.370 ± 0.8808 nmol/min, the “* (regulatory effect on tryptophan transport)” value (Caco-2 cell monolayer [1]; compound 0.1 μM) was “↑” and the “Percentage (tryptophan transport, control = 100)” value (Caco-2 cell monolayer [1]; compound 0.1 μM) was 149.52%. The “Transport rate (tryptophan)” value (Caco-2 cell monolayer [1]; compound 0.1 μM) was 13.370 ± 0.3301 nmol/min, the “* (regulatory effect on tryptophan transport)” value (Caco-2 cell monolayer [1]; compound 1 μM) was “↑” and the “Percentage (tryptophan transport, control = 100)” value (Caco-2 cell monolayer [1]; compound 1 μM) was 118.54%. For the same compound, the “Transport rate (tryptophan)” value (Caco-2 cell monolayer [1]; compound 1 μM) was 10.600 ± 0.8058 nmol/min, the Tryptophan transport rate (Caco-2 cell monolayer [1]) was “increased” and the “* (regulatory effect on folate uptake)” value (Caco2 cells) was “↑”. The “Percentage (folate uptake vs own control)” value (Caco2 cells) was 144.83%, the “Uptake rate (folate)” value (Caco2 cells) was 73.460 ± 3.6060 pmol/mg/min and the “Regulatory effects on the arginine transport across the Caco2 cell monolayer” value (Caco-2 cell monolayer [2]) was “had regulatory effects on the arginine transport”. The “* (regulatory effect on arginine transport)” value (Caco-2 cell monolayer [2]; compound 0.01 μM) was “↑”, the “Percentage (arginine transport, control = 100)” value (Caco-2 cell monolayer [2]; compound 0.01 μM) was 135.49% and the “Transport rate (arginine)” value (Caco-2 cell monolayer [2]; compound 0.01 μM) was 14.4776 ± 0.5519 nmol/min. The “* (regulatory effect on arginine transport)” value (Caco-2 cell monolayer [2]; compound 0.1 μM) was “↑”, the “Percentage (arginine transport, control = 100)” value (Caco-2 cell monolayer [2]; compound 0.1 μM) was 199.44% and the “Transport rate (arginine)” value (Caco-2 cell monolayer [2]; compound 0.1 μM) was 21.3107 ± 1.5130 nmol/min. For the same compound, the “* (regulatory effect on arginine transport)” value (Caco-2 cell monolayer [2]; compound 1 μM) was “↑”, the “Percentage (arginine transport, control = 100)” value (Caco-2 cell monolayer [2]; compound 1 μM) was 135.41% and the “Transport rate (arginine)” value (Caco-2 cell monolayer [2]; compound 1 μM) was 14.4734 ± 1.1350 nmol/min. The Arginine transport rate (Caco-2 cell monolayer [2]) was “increased”.

`CC(C)(O)[C@@H]1CC[C@](C)([C@H]2[C@@H](O)C[C@@]3(C)[C@@H]4C[C@H](O)[C@H]5C(C)(C)[C@@H](O[C@@H]6OC[C@@H](O)[C@H](O)[C@H]6O[C@@H]6O[C@H](CO)[C@@H](O)[C@H](O)[C@H]6O)CC[C@@]56C[C@@]46CC[C@]23C)O1` [AS3, astragaloside III] was tested, and the “Regulatory effects on the tryptophan transport across the Caco2 cell monolayer” value (Caco-2 cell monolayer [1]) was “had regulatory effects on the tryptophan transport”, the “* (regulatory effect on tryptophan transport)” value (Caco-2 cell monolayer [1]; compound 0.01 μM) was “↑” and the “Percentage (tryptophan transport, control = 100)” value (Caco-2 cell monolayer [1]; compound 0.01 μM) was 159.81%. For the same compound, the “Transport rate (tryptophan)” value (Caco-2 cell monolayer [1]; compound 0.01 μM) was 14.290 ± 1.3910 nmol/min, the “* (regulatory effect on tryptophan transport)” value (Caco-2 cell monolayer [1]; compound 0.1 μM) was “↑” and the “Percentage (tryptophan transport, control = 100)” value (Caco-2 cell monolayer [1]; compound 0.1 μM) was 151.98%. For the same compound, the “Transport rate (tryptophan)” value (Caco-2 cell monolayer [1]; compound 0.1 μM) was 13.590 ± 1.0080 nmol/min, the “* (regulatory effect on tryptophan transport)” value (Caco-2 cell monolayer [1]; compound 1 μM) was “↑” and the “Percentage (tryptophan transport, control = 100)” value (Caco-2 cell monolayer [1]; compound 1 μM) was 270.63%. The “Transport rate (tryptophan)” value (Caco-2 cell monolayer [1]; compound 1 μM) was 24.200 ± 1.0260 nmol/min, the Tryptophan transport rate (Caco-2 cell monolayer [1]) was “increased” and the “* (regulatory effect on folate uptake)” value (Caco2 cells) was “↑”. For the same compound, the “Percentage (folate uptake vs own control)” value (Caco2 cells) was 145.41%, the “Uptake rate (folate)” value (Caco2 cells) was 80.380 ± 6.2170 pmol/mg/min and the “Regulatory effects on the arginine transport across the Caco2 cell monolayer” value (Caco-2 cell monolayer [2]) was “had regulatory effects on the arginine transport”. The “* (regulatory effect on arginine transport)” value (Caco-2 cell monolayer [2]; compound 0.01 μM) was “↑”, the “Percentage (arginine transport, control = 100)” value (Caco-2 cell monolayer [2]; compound 0.01 μM) was 121.74% and the “Transport rate (arginine)” value (Caco-2 cell monolayer [2]; compound 0.01 μM) was 13.0084 ± 1.0510 nmol/min. For the same compound, the “* (regulatory effect on arginine transport)” value (Caco-2 cell monolayer [2]; compound 0.1 μM) was “↑”, the “Percentage (arginine transport, control = 100)” value (Caco-2 cell monolayer [2]; compound 0.1 μM) was 124.33% and the “Transport rate (arginine)” value (Caco-2 cell monolayer [2]; compound 0.1 μM) was 13.2858 ± 1.4110 nmol/min. The “* (regulatory effect on arginine transport)” value (Caco-2 cell monolayer [2]; compound 1 μM) was “↑”, the “Percentage (arginine transport, control = 100)” value (Caco-2 cell monolayer [2]; compound 1 μM) was 148.18% and the “Transport rate (arginine)” value (Caco-2 cell monolayer [2]; compound 1 μM) was 15.8341 ± 1.0000 nmol/min. The Arginine transport rate (Caco-2 cell monolayer [2]) was “increased”.
